Our source for the IC50, Drug uptake and Activity values is ChEMBL document CHEMBL5352436, “Triterpenoid pyrazines and pyridines - Synthesis, cytotoxicity, mechanism of action, preparation of prodrugs” (Eur J Med Chem, 2022).

The nature of series [1]: Cytotoxicity against human K562-Tax cells assessed as reduction in cell viability incubated for 72 hrs by MTS assay. Type of series: functional, cell-based. On the technique in general: Formazan colour is commonly taken as a measure of viable cells.
Series [2] can be described thus: Drug localization in human CCRF-CEM cells assessed as MT-CO2 signal at 10 uM incubated for 4 hrs by click reaction analysis. Format: ADME, cell-based.
For series [3], the system named is A549. Kind of series: Cytotoxicity against human A549 cells assessed as reduction in cell viability incubated for 72 hrs by MTS assay. Type of series: functional, cell-based. The settings on record: A549, 72 h.
Series [4] can be described thus: Cytotoxicity against human BJ cells assessed as reduction in cell viability incubated for 72 hrs by MTS assay. Type of series: toxicity, cell-based.
Series [5] concerns CCRF-CEM. Kind of series: Cytotoxicity against human CCRF-CEM cells assessed as reduction in cell viability incubated for 72 hrs by MTS assay. Format: functional, cell-based.
Series [6] relates to CEM-DNR. Kind of series: Cytotoxicity against human CEM-DNR cells assessed as reduction in cell viability incubated for 72 hrs by MTS assay. Format: functional, cell-based.
Series [7] deals with U2OS. Briefly: Cytotoxicity against human U2OS cells assessed as reduction in cell viability incubated for 72 hrs by MTS assay. Type of series: functional, cell-based.
The nature of series [8]: Cytotoxicity against human HCT116-p53-null cells assessed as reduction in cell viability incubated for 72 hrs by MTS assay. Type of series: functional, cell-based.
Series [9] concerns K562. Briefly: Cytotoxicity against human K562 cells assessed as reduction in cell viability incubated for 72 hrs by MTS assay. Particulars: K562, 72 h. Type of series: functional, cell-based.
Series [10] can be described thus: Cytotoxicity against human MRC5 cells assessed as reduction in cell viability incubated for 72 hrs by MTS assay. Format: toxicity, cell-based.
The subject of series [11] is HCT-116. Briefly: Cytotoxicity against human HCT-116 cells assessed as reduction in cell viability incubated for 72 hrs by MTS assay. Type of series: functional, cell-based. Particulars: HCT-116, 72 h.
In series [12] the test system is HeLa. Kind of series: Antitumor activity in human HeLa cells cultured as spheroids assessed as inhibition of spheroid opening at 1 uM incubated for 3 days. Format: functional, cell-based. The settings on record: time 3.0 day.
Series [13] has as its system CCRF-CEM. Kind of series: Induction of apoptosis in human CCRF-CEM cells assessed as accumulation of Bax protein expression at 1 to 5 times IC50 incubated for 24 hrs by Western blot analysis. Format: functional, cell-based. Background: Immunoblotting shows a protein as a band on a membrane.
The test system of series [14] is CCRF-CEM. Kind of series: Induction of apoptosis in human CCRF-CEM cells assessed as early apoptotic cells at 1 time IC50 incubated for 24 hrs by Annexin V and propidium iodide staining based flow cytometry analysis (reference value: […]). Format: functional. (A flow cytometer gives signals particle by particle.)
Series [15] relates to CCRF-CEM. Kind of series: Induction of apoptosis in human CCRF-CEM cells assessed as late apoptotic cells at 5 times IC50 incubated for 24 hrs by Annexin V and propidium iodide staining based flow cytometry analysis […]. Format: functional.
Series [16] deals with CCRF-CEM. Briefly: Induction of mitochondrial damage in human CCRF-CEM cells at >= 10 uM incubated for 4 hrs by light microscopic analysis. Format: functional, cell-based.
Series [17] deals with CCRF-CEM. Briefly: Induction of apoptosis in human CCRF-CEM cells assessed as late apoptotic cells at 1 time IC50 incubated for 24 hrs by Annexin V and propidium iodide staining based flow cytometry analysis (reference value: […]). Format: functional.
The subject of series [18] is HCT-116. Kind of series: Antitumor activity in human HCT-116 cells cultured as spheroids assessed as inhibition of cell growth at 10 uM incubated for 3 days. Format: functional. Further details: scale not given: the % may be the effect or the level left. The settings on record: time 3 day.
Series [19] deals with CCRF-CEM. Kind of series: Induction of apoptosis in human CCRF-CEM cells assessed as increase in Noxa expression at 1 to 5 times IC50 incubated for 24 hrs by Western blot analysis. Format: functional, cell-based.
For series [20], the system named is CCRF-CEM. Kind of series: Induction of apoptosis in human CCRF-CEM cells assessed as necrotic cells at 1 time IC50 incubated for 24 hrs by Annexin V and propidium iodide staining based flow cytometry analysis (reference value: 0.0%). Type of series: functional.
Series [21] has as its system CCRF-CEM. Briefly: Induction of apoptosis in human CCRF-CEM cells assessed as necrotic cells at 5 times IC50 incubated for 24 hrs by Annexin V and propidium iodide staining based flow cytometry analysis […]. Format: functional.
Series [22] has as its system CCRF-CEM. Kind of series: Induction of apoptosis in human CCRF-CEM cells assessed as early apoptotic cells at 5 times IC50 incubated for 24 hrs by Annexin V and propidium iodide staining based flow cytometry analysis […]. Format: functional.
In series [23] the test system is CCRF-CEM. Briefly: Induction of apoptosis in human CCRF-CEM cells assessed as viable cells at 1 time IC50 incubated for 24 hrs by Annexin V and propidium iodide staining based flow cytometry analysis […]. Type of series: functional.
Series [24] deals with CCRF-CEM. Briefly: Induction of apoptosis in human CCRF-CEM cells assessed as PARP cleavage at 1 to 5 times IC50 incubated for 24 hrs by Western blot analysis. Type of series: functional, cell-based.
For series [25], the system named is CCRF-CEM. Briefly: Induction of apoptosis in human CCRF-CEM cells assessed as viable cells at 5 times IC50 incubated for 24 hrs by Annexin V and propidium iodide staining based flow cytometry analysis […]. Format: functional.
The test system of series [26] is CCRF-CEM. Briefly: Induction of apoptosis in human CCRF-CEM cells assessed as accumulation of Bid protein expression at 1 to 5 times IC50 incubated for 24 hrs by Western blot analysis. Type of series: functional, cell-based.
In series [27] the test system is CCRF-CEM. Kind of series: Induction of apoptosis in human CCRF-CEM cells assessed as decrease in c-Myc expression at 1 to 5 times IC50 incubated for 24 hrs by Western blot analysis. Type of series: functional, cell-based.
In series [28] the test system is CCRF-CEM. Briefly: Induction of mitochondrial changes in human CCRF-CEM cells at 10 uM incubated for 4 hrs by electron microscopic analysis. Format: functional, cell-based.

Active and inactive are the calls of the source. The calls are words filed in the database; no cut-off is given here.

Usually IC50 stands for the point on the concentration scale where inhibition reaches its midpoint. As for `C#CCOC(=O)[C@]12CC[C@@H](C(=C)C=O)[C@@H]1[C@H]1CC[C@@H]3[C@@]4(C)Cc5nccnc5C(C)(C)[C@@H]4CC[C@@]3(C)[C@]1(C)CC2`, the IC50 was found to be 1.4 µM in series [1]; 1.7 µM in series [3]; 0.43 µM in series [5]; 1.7 µM in series [6]; 1.4 µM in series [7]; 6.3 µM in series [8]. Besides, the figures for the IC50 in series [9] and in series [11] were 1.6 µM and 7 µM, respectively. The Drug uptake entry in [2] is “Active”. For the same compound, the half-inhibitory concentration (IC50) at 72 h is 7.2 µM in series [4] and 6.6 µM in [10].

In the case of `C#CCOC(=O)[C@]12CC[C@@H](C(=C)C)[C@@H]1[C@H]1CC[C@@H]3[C@@]4(C)Cc5nccnc5C(C)(C)[C@@H]4CC[C@@]3(C)[C@]1(C)CC2`, the IC50 in series [1] is > 50 µM; in [3] it was > 50 µM; in [5], 45 µM; in series [6], 50 µM; in series [7] it was > 50 µM; in series [8], > 50 µM. In addition, the half-maximal inhibitory concentration (IC50) in [9] and in series [11] was > 50 µM in each case. The Drug uptake entry in [2] is given as “Not Active”. In addition, the IC50 at 72 h in series [4] and in [10] was > 50 µM each time.

On to `C=C(C=O)[C@@H]1CC[C@]2(C(=O)O)CC[C@]3(C)[C@H](CC[C@@H]4[C@@]5(C)Cc6nccnc6C(C)(C)[C@@H]5CC[C@]43C)[C@@H]12`, for which the outcome in series [12], in series [13], in series [19], in [24], in series [26] and in series [27] was Active. Moreover, the Activity in [14] was 5.5%; in [15], 42.8%; in series [17], 3.6%; in series [18], 100%; in series [20], 5.8%; in [21] it was 0.5%. Also, the Activity was found to be 54% in series [22], 85.1% in [23] and 2.7% in [25]. In addition, the outcome in series [16] was inactive.

Turning to `C=C(C)[C@@H]1CC[C@]2(C(=O)O)CC[C@]3(C)[C@H](CC[C@@H]4[C@@]5(C)Cc6nccnc6C(C)(C)[C@@H]5CC[C@]43C)[C@@H]12`, the result in series [12] and in [28] was Active. The Activity in [14] is on record as 1.7%; in series [15], 2.6%; in series [17] it was 2.2%; in series [18], 100%; in [20], 3.7%; in series [21], 4.5%. Besides, the Activity in series [22] stood at 0.8%; in series [23] it was 92.3%; in [25], 92%. Also, the result in series [16] was inactive.
